From US20240208940A1, “SMALL-MOLECULE INHIBITORS FOR BETA-CATENIN/BCELL LYMPHOMA 9 PROTEIN-PROTEIN INTERACTION” (H. LEE MOFFITT CANCER CENTER AND RESEARCH INSTITUTE, INC., priority 2021, published 2024)
Counter-ions that a name gives are not always drawn.

Target: β-catenin/BCL9 PPI (Homo sapiens (Human), UniProt P35222)
Experiment: AlphaScreen competitive inhibition assay of β-catenin/BCL9 PPI
Assay type: binding
Conditions: mean ± standard deviation (n = 3); for Ki: derived from IC50, read-out: Ki ± SD
Description: AlphaScreen Assays of β-Catenin and BCL9 Interaction. Experiments were performed in white opaque 384-well plates from PerkinElmer (Waltham, MA), and the samples were read on a Biotek Synergy 2 plate reader (Winooski, VT) with excitation at 680 nm and emission at 570 nm. The standard AlphaScreen protocol was used with a sensitivity setting of 200. All dilutions were made in 1× assay buffer containing 25 mM Hepes (pH 7.4), 100 mM NaCl, 0.01% Triton X-100 and 0.1% BSA to minimize nonspecific interactions. For the competitive inhibition assays of β-catenin/BCL9 PPI, the negative control (equivalent to 0% inhibition) refers to 5.0 nM biotinylated BCL9, 50 nM His6-tagged β-catenin, and 10 μg/mL donor and acceptor beads in a final volume of 25 μL assay buffer, but no tested inhibitor present. The positive control (equivalent to 100% inhibition) refers to 5.0 nM biotinylated BCL9 and 10 μg/mL donor and acceptor beads in a final volume of 25 μL assay buffer.
For the β-catenin/BCL9 assay, 5 nM biotinylated BCL9 and 50 nM His6-tagged β-catenin were incubated in assay buffer for 30 min. Different concentrations of the tested inhibitor were added and incubated in 20 μL assay buffer for another 1 h. All of the assay plates were covered and gently mixed on an orbital shaker. The donor and acceptor beads were then added to the plates to a final concentration of 10 μg/mL in 25 μL assay buffer. The mixture was incubated for 1 h before detection. The IC50 value was determined by nonlinear least-square analysis of GraphPad Prism 8.0. The Ki values were derived from the IC50 values using a method reported by Wang and coworkers.^65 The equation used is Ki=[I]50/([L]50/Kd+[P]0/Kd+1) (Where [I]50 denotes the concentration of the free inhibitor at 50% inhibition, [L]50 is the concentration of the free labeled ligand at 50% inhibition, [P]0 is the concentration of the free protein at 0% inhibition, and Kd is the dissociation constant of the protein-ligand complex). All of the experiments were performed in triplicate and carried out in the presence of 1% DMSO for small-molecule inhibitors. Each compound was assayed at least by three independent experiments. The results were expressed as mean±standard deviation.

β-catenin/BCL9 PPI, sequence (P35222 whole entry): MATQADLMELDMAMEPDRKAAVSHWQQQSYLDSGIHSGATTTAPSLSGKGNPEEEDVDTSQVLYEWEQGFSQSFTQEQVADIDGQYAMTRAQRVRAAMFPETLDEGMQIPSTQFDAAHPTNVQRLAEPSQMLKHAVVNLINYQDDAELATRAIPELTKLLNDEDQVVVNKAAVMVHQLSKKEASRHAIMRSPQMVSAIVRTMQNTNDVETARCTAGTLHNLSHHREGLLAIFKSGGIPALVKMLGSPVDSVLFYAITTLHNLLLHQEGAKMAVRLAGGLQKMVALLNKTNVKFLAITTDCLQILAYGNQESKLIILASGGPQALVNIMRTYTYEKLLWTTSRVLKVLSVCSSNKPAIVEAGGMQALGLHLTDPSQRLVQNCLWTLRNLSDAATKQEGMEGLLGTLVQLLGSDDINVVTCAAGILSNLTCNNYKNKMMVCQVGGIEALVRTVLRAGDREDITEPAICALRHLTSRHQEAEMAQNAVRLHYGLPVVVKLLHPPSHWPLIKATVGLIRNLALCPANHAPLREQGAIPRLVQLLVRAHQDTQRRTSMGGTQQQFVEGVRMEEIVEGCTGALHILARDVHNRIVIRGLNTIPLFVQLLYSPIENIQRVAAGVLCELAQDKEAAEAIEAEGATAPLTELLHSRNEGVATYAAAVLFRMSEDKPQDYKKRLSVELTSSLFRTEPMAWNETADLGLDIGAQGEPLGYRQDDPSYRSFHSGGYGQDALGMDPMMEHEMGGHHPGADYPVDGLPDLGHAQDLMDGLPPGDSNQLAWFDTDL

SMILES	Ki [µM]	IC50 [µM]
COC(=O)c1ccc(N2CCNCC2)cc1OC1CCN(C(=O)c2ccc(O[C@H]3CCNC3)c(C3CCC(C(C)(C)C)CC3)c2)CC1 (stereo in doubt) [Compound 39, cis- and trans-methyl (S)-2-((1-(3-(4-(tert-butyl)cyclohexyl)-4-(pyrrolidin-3-yloxy)benzoyl)piperidin-4-yl)oxy)-4-(piperazin-1-yl)benzoate dihydrochloride]	14 ± 0.87	17 ± 1.1
O=C(c1ccc(O[C@H]2CCNC2)c(C2CCCCC2)c1)N1CCC(Oc2cc(F)cc(N3CCC4(CC3)CNC4)c2)CC1 [Compound 3, (S)-(3-cyclohexyl-4-(pyrrolidin-3-yloxy)phenyl)(4-(3-fluoro-5-(2,7-diazaspiro[3.5]nonan-7-yl)phenoxy)piperidin-1-yl)methanone ditrifluoroacetic acid]	> 84	> 100
CC(C)(C)C1CCC(c2cc(C(=O)N3CCC(Oc4cc(N5CCNCC5)cc(C(F)(F)F)c4)CC3)ccc2O[C@H]2CCNC2)CC1 (stereo in doubt) [Compound 31, cis- and trans-(S)-(3-(4-(tert-butyl)cyclohexyl)-4-(pyrrolidin-3-yloxy)phenyl)(4-(3-(piperazin-1-yl)-5-(trifluoromethyl)phenoxy)piperidin-1-yl)methanone dihydrochloride]	< 5	≤ 5
O=C(c1ccc(O[C@H]2CCNC2)c(-c2cn[nH]c2)c1)N1CCC(Oc2cc(F)cc(N3CCNCC3)c2)CC1 [Compound 17, (S)-(3-(1H-pyrazol-4-yl)-4-(pyrrolidin-3-yloxy)phenyl)(4-(3-fluoro-5-(piperazin-1-yl)phenoxy)piperidin-1-yl)methanone dihydrochloride]	≤ 2	≤ 2
CC(C)(C)C(=O)N1CCC(c2cc(C(=O)N3CCC(Oc4cc(F)cc(N5CCNCC5)c4)CC3)ccc2O[C@H]2CCNC2)CC1 [Compound 24, (S)-1-(4-(5-(4-(3-fluoro-5-(piperazin-1-yl)phenoxy)piperidine-1-carbonyl)-2-(pyrrolidin-3-yloxy)phenyl)piperidin-1-yl)-2,2-dimethylpropan-1-one dihydrochloride]	~84	~100
CC(C)C(=O)N1CCC(c2cc(C(=O)N3CCC(Oc4cc(F)cc(N5CCNCC5)c4)CC3)ccc2O[C@H]2CCNC2)CC1 [Compound 22, (S)-1-(4-(5-(4-(3-fluoro-5-(piperazin-1-yl)phenoxy)piperidine-1-carbonyl)-2-(pyrrolidin-3-yloxy)phenyl)piperidin-1-yl)-2-methylpropan-1-one dihydrochloride]	≤ 50	≤ 50
CC(C)(C)C1CCC(c2cc(C(=O)N3CCC(Oc4cc(N5CCNCC5)ccc4Cl)CC3)ccc2O[C@H]2CCNC2)CC1 (stereo in doubt) [Compound 36, cis- and trans-(S)-(3-(4-(tert-butyl)cyclohexyl)-4-(pyrrolidin-3-yloxy)phenyl)(4-(2-chloro-5-(piperazin-1-yl)phenoxy)piperidin-1-yl)methanone dihydrochloride]	≤ 5	≤ 5
O=C(c1ccc(O[C@H]2CCNC2)c(C2CCCCC2)c1)N1CCC(Oc2cc(F)cc(N3C[C@H]4CNC[C@H]4C3)c2)CC1 [Compound 4, (S)-(3-cyclohexyl-4-(((S)-pyrrolidin-3-yl)oxy)phenyl)(4-(3-fluoro-5-((3aR,6aS)-hexahydropyrrolo[3,4-c]pyrrol-2(1H)-yl)phenoxy)piperidin-1-yl)methanone ditrifluoroacetic acid]	> 84	> 100
O=C(c1ccc(O[C@H]2CCNC2)c(-c2ccc3ccccc3c2)c1)N1CCC(Oc2cc(F)cc(N3CCNCC3)c2)CC1 [Compound 12, (S)-(4-(3-fluoro-5-(piperazin-1-yl)phenoxy)piperidin-1-yl)(3-(naphthalen-2-yl)-4-(pyrrolidin-3-yloxy)phenyl)methanone dihydrochloride]	≤ 5	≤ 5
